Test results: patent US11939307B2, “Phenylmethyl-piperazine derivatives and antiviral uses thereof” (INSTITUTE OF MEDICINAL BIOTECHNOLOGY, CHINESE ACADEMY OF …, priority 2019, dated 2024)
Read-outs that look alike come from different tables or passages of the source.

System: HCV
Experiment: Assay of anti-HCV activity in HCV-infected Huh7.5 cells (intracellular HCV RNA by one-step quantitative RT-PCR)
Format: cell-based
Conditions: Hepatitis C virus, read-out: inhibitory activities (inhibitory levels of the compounds against HCV replication)
Procedure, shortened: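 Huh7.5 cells were infected with HCV particles while compounds were added at 1 μM, then incubated 96 h at 37 °C, 5% CO2. Intracellular HCV RNA was quantified by one-step qRT-PCR, and inhibition was calculated relative to the viral control.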

[1] = compound at 1 μM, Huh7.5 cells infected with HCV, 96 hrs, intracellular HCV RNA vs viral control

Work on `CN(C)C1CCN(c2ccc(C#N)c(CN3CCN(C(c4ccc(Cl)cc4)c4ccc(Cl)cc4)CC3)c2)C1` (stereo not drawn) [Compound 85, 2-((4-(bis(4-chlorophenyl)methyl)piperazin-1-yl)methyl)-4-(3-(dimethylamino)pyrrolidin-1-yl)benzonitrile] yielded an inhibition at 1 µM [1] greater than 75%.

`CN(CCN1CCCC1)c1ccc(C#N)c(CN2CCN(C(c3ccc(Cl)cc3)c3ccc(Cl)cc3)CC2)c1` [Compound 86, 2-((4-(bis(4-chlorophenyl)methyl)piperazin-1-yl)methyl)-4-(methyl(2-(pyrrolidin-1-yl)ethyl)amino)benzonitrile] was tested, and the inhibition at 1 µM [1] was greater than 75%.

`CN(CCN1CC1)c1ccc(C#N)c(CN2CCN(C(c3ccc(Cl)cc3)c3ccc(Cl)cc3)CC2)c1` [Compound 87, 4-((2-(aziridin-1-yl)ethyl)(methyl)amino)-2-((4-(bis(4-chlorophenyl)methyl)piperazin-1-yl)methyl)benzonitrile] gave an inhibition at 1 µM (Huh7.5, 96 h) of 50 to 75%.

In the case of `CN1CCCN(c2ccc(C#N)c(CN3CCN(C(c4ccccc4)c4ccc(Cl)cc4)CC3)c2)CC1` (stereo not drawn) [Compound 88, 2-((4-((4-chlorophenyl)(phenyl)methyl)piperazin-1-yl)methyl)-4-(4-methyl-1,4-diazepan-1-yl)benzonitrile], the inhibition at 1 µM [1] is reported as greater than 75%.

Molecule `CN1CCCN(c2ccc(C#N)c(CN3CCN(C(c4ccncc4)c4ccc(Cl)cc4)CC3)c2)CC1` (stereo not drawn) [Compound 89, 2-((4-((4-chlorophenyl)(pyridin-4-yl)methyl)piperazin-1-yl)methyl)-4-(4-methyl-1,4-diazepan-1-yl)benzonitrile] has an inhibition at 1 µM [1] greater than 75%.

For `CN(C)CCN(C)c1ccc(C#N)c(CN2CCC(C(c3ccc(Cl)cc3)c3ccc(Cl)cc3)CC2)c1` [Compound 90, 2-((4-(bis(4-chlorophenyl)methyl)piperidin-1-yl)methyl)-4-((2-(dimethylamino)ethyl)(methyl)amino)benzonitrile], the inhibition at 1 µM [1] was greater than 75%.

`CN1CCCN(c2ccc(C#N)c(CN3CCC(C(c4ccc(F)cc4)c4ccc(F)cc4)CC3)c2)CC1` [Compound 91, 2-((4-(bis(4-fluorophenyl)methyl)piperidin-1-yl)methyl)-4-(4-methyl-1,4-diazepan-1-yl)benzonitrile] gave an inhibition at 1 µM [1] greater than 75%.

`CN1CCC(N(C)c2ccc(C(F)(F)F)c(CN3CCN(c4ccc(Cl)cc4)CC3)c2)C1` (stereo not drawn) [Compound 92] showed an inhibition at 1 µM [1] greater than 75%.

Work on `CCN(C)CCN(C)c1ccc(C#N)c(CN2CCN(C(C)c3cnccn3)CC2)c1` (stereo not drawn) [Compound 93, 4-[{2-[ethyl(methyl)amino]ethyl}(methyl)amino)-2-({4-[1-(pyrazin-2-yl)ethyl]piperazin-1-yl}methyl)benzonitrile] yielded an inhibition at 1 µM [1] of 50 to 75%.

Molecule `CCN(CC)CCN(C)c1ccc(C(F)(F)F)c(CN2CCN(C(c3ccc(Cl)c(Cl)c3)c3ccc(Cl)c(Cl)c3)CC2)c1` [Compound 94, N1-(3-[{4-[bis(3,4-dichlorophenyl)methyl]piperazin-1-yl}methyl]-4-(trifluoromethyl)phenyl)-N2,N2-diethyl-N1-methylethan-1,2-diamine] has an inhibition at 1 µM [1] greater than 75%.

With `Cc1cc(C(c2ccc(Cl)c(C)c2)N2CCN(Cc3cc(N(C)CCN(C)C)ccc3C#N)CC2)ccc1Cl` [Compound 95, 2-({4-[bis(4-chloro-3-methylphenyl)methyl]piperazin-1-yl}methyl)-4-{[2-(dimethylamino)ethyl](methyl)amino)benzonitrile] the inhibition at 1 µM [1] was greater than 75%.

In the case of `CN1CCCN(c2ccc(C(F)(F)F)c(CN3CCN(C(c4ccc(Cl)c(Cl)c4)C4CCCCC4)CC3)c2)CC1` (stereo not drawn) [Compound 96, 1-[3-({4-[cyclohexyl(3,4-dichlorophenyl)methyl]piperazin-1-yl}methyl)-4-(trifluoromethyl)phenyl]-4-methyl-1,4-diazepane], the inhibition at 1 µM [1] is reported as greater than 75%.

Molecule `CN1CCCN(c2ccc(C#N)c(CN3CCN(C(c4ccc(Cl)cc4)C4CCC4)CC3)c2)CC1` (stereo not drawn) [Compound 97, 2-({4-[(4-chlorophenyl)(cyclobutyl)methyl]piperazin-1-yl}methyl)-4-(4-methyl-1,4-diazepan-1-yl)benzonitrile] has an inhibition at 1 µM [1] greater than 75%.

Molecule `CN1CCN(c2ccc(C#N)c(CN3CCN(C(c4ccc(C(F)(F)F)cc4)c4cnccn4)CC3)c2)CC1` (stereo not drawn) [Compound 99] has an inhibition at 1 µM [1] of 50 to 75%.

For `CN1CCCN(c2ccc(C(F)(F)F)c(CN3CCN(C(c4ccc(Oc5ccccc5)cc4)c4ccccn4)CC3)c2)CC1` (stereo not drawn) [Compound 100, 1-methyl-4-[3-({4-[(4-phenoxyphenyl)(pyridin-2-yl)methyl]piperazin-1-yl}methyl)-4-(trifluoromethyl)phenyl]-1,4-diazepane], the inhibition at 1 µM [1] was 50 to 75%.

With `CCN1CCC(N(C)c2ccc(C(F)(F)F)c(CN3CCN(C(c4ccc(Sc5ccccc5)cc4)c4ccc(Sc5ccccc5)cc4)CC3)c2)C1` (stereo not drawn) [Compound 101, N-{3-([4-{bis[4-(phenylthio)phenyl]methyl}piperazin-1-yl]methyl)-4-(trifluoromethyl)phenyl}-1-ethyl-N-methylpyrrolidin-3-amine] the inhibition at 1 µM [1] was greater than 75%.

Work on `CSc1ccc(C(c2ccc(SC)cc2)N2CCN(Cc3cc(N(C)CCN(C)C)ccc3C#N)CC2)cc1` [Compound 102, 2-({4-(bis(4-(methylthio)phenyl]methyl}piperazin-1-yl)methyl)-4-{[2-(dimethylamino)ethyl](methyl)amino}benzonitrile] yielded an inhibition at 1 µM [1] greater than 75%.

For `CN(CCN1CCCC1)c1ccc(C(F)(F)F)c(CN2CCN(C(c3ccc(C(F)(F)F)cc3)c3ccc(C(F)(F)F)cc3)CC2)c1` [Compound 103, 3-([4-{bis[4-(trifluoromethyl)phenyl]methyl}piperazin-1-yl]methyl)-N-methyl-N-[2-(pyrrolidin-1-yl)ethyl]-4-(trifluoromethyl)aniline], the inhibition at 1 µM [1] was greater than 75%.

In the case of `CN(C)CCN(C)c1ccc(C#N)c(CN2CCN(C(c3ccc(C#N)cc3)C3CCCC3)CC2)c1` (stereo not drawn) [Compound 104, 2-({4-[(4-cyanophenyl)(cyclopentyl)methyl]piperazin-1-yl}methyl)-4-{[2-(dimethylamino)ethyl](methyl)amino}benzonitrile], the inhibition at 1 µM [1] is reported as greater than 75%.

In the case of `CC(c1ccc(C#N)cc1)N1CCN(Cc2cc(N(C)CCN(C)C)ccc2C(F)(F)F)CC1` (stereo not drawn) [Compound 105, 4-{1-(4-[5-{[2-(dimethylamino)ethyl](methyl)amino}-2-(trifluoromethyl)benzyl]piperazin-1-yl)ethyl}benzonitrile], the inhibition at 1 µM [1] is reported as greater than 75%.

Work on `N#Cc1ccc(NCCCn2ccnc2)cc1CN1CCN(C(c2ccc(Cl)cc2)c2ccc(Cl)cc2)CC1` [Compound 106, 4-([3-(1H-imidazol-1-yl)propyl]amino)-2-({4-[bis(4-chlorophenyl)methyl]piperazin-1-yl}methyl)benzonitrile] yielded an inhibition at 1 µM [1] greater than 75%.

In the case of `CN(C)CCN(C)c1ccc(C(F)(F)F)c(CN2CCN(c3ccc(Cl)c(Cl)c3)CC2)c1` [Compound 107, N^1-(3-((4-(3,4-dichlorophenyl)piperazin-1-yl)methyl)-4-(trifluoromethyl)phenyl)-N^1,N^2,N^2-trimethylethan-1,2-diamine], the inhibition at 1 µM [1] is reported as greater than 75%.

Molecule `Cc1cc(N2CCN(Cc3cc(N(C)CCN(C)C)ccc3C(F)(F)F)CC2)ccc1Cl` [Compound 108, N^1-(3-((4-(4-chloro-3-methylphenyl)piperazin-1-yl)methyl)-4-(trifluoromethyl)phenyl)-N^1,N^2,N^2-trimethylethan-1,2-diamine] has an inhibition at 1 µM [1] greater than 75%.

With `CN1CCCN(c2ccc(C(F)(F)F)c(CN3CCN(c4ccc(Cl)c(Cl)c4)CC3)c2)CC1` [Compound 109, 1-(3-((4-(3,4-dichlorophenyl)piperazin-1-yl)methyl)-4-(trifluoromethyl)phenyl)-4-methyl-1,4-diazepane] the inhibition at 1 µM [1] was greater than 75%.
